14 molecules from patent US12590062B2, “PD-1/PD-L1 inhibitors” (Gilead Sciences, Inc., priority 2017, dated 2026) can be followed below.

T1 sequence (Q9NZQ7 19-290): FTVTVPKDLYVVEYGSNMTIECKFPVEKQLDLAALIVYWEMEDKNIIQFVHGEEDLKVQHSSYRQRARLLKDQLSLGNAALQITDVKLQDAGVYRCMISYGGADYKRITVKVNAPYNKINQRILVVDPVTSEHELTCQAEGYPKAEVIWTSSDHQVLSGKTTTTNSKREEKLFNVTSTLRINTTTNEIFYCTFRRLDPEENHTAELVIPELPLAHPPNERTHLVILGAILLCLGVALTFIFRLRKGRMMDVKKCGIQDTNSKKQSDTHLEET

This assay concerns the target T1, PD-1/PD-L1 interaction (Homo sapiens, UniProt Q9NZQ7).
T1 construct: expressed in transfected cells; host or cells: CHO cells (aAPC-PD-L1) co-cultured with Jurkat cells overexpressing PD-1 and an NFAT-luciferase reporter
In words: PD-1/PD-L1 NFAT reporter co-culture assay. Type of assay: cell-based. Particulars: Jurkat PD-1 NFAT-luciferase cells co-cultured with aAPC-PD-L1 CHO cells, 6 hrs at 37° C.; read-out: EC50 NFAT Luciferase. On the procedure: PD-1/PD-L1 NEAT Reporter Assay:
Compounds were tested in afunctional co-culture reporter assay in which TCR-mediated NFAT activity is inhibited by the engagement of PD-1 with PD-L1. […] CHO cells expressing surface-bound anti-CD3 antibodies and PD-L1 (artificial antigen presenting cells, aAPC-PD-L1) were first seeded overnight. Jurkat cells overexpressing PD-1 and expressing a luciferase construct under NFAT control are diluted in RPMI assay medium (RPMI 1640 with 2% FBS), mixed with compounds, and immediately seeded on the monolayer of aAPC-PD-L1. The co-culture is then incubated for 6 hrs at 37° C. Luciferase activity is assessed by adding the ONE-Glo reagent and measuring luminescence with a plate reader. EC50 values are calculated from the fit of the dose-response curves to a four-parameter equation (Table 3).
For the molecule `Cc1c(COc2nc(OCc3cc(C#N)cc(C#N)c3)c(CNCC(=O)O)cc2Cl)cccc1-c1cccc(COc2nc(OCc3cc(C#N)cc(C#N)c3)c(CNCC(=O)O)cc2Cl)c1C` [Example 125, 2,2′-((((((2,2′-dimethyl-[1,1′-biphenyl]-3,3′-diyl)bis(methylene))bis(oxy))bis(5-chloro-2-((3,5-dicyanobenzyl)oxy)pyridine-6,3-diyl))bis(methylene))bis(azanediyl))diacetic acid], the concentration for a half-maximal effect (EC50) (commonly the concentration that produces a half-maximal response) amounted to 0.158 µM.
For `Cc1c(COc2nc(OCCc3cc(C#N)ccn3)c(CNC[C@@H](O)CC(=O)O)cc2Br)cccc1-c1cccc(COc2nc(OCCc3cc(C#N)ccn3)c(CNC[C@@H](O)CC(=O)O)cc2Br)c1C` [Example 128, (3S,3′S)-4,4′-((((((2,2′-dimethyl-[1,1′-biphenyl]-3,3′-diyl)bis(methylene))bis(oxy))bis(5-bromo-2-(2-(4-cyanopyridin-2-yl)ethoxy)pyridine-6,3-diyl))bis(methylene))bis(azanediyl))bis(3-hydroxybutanoic acid)], the concentration giving a half-maximal response (EC50) was 0.234 µM.
The value for `Cc1c(COc2nc(OCc3cnn(C)c3)c(CNC[C@@H](O)CC(=O)O)cc2Cl)cccc1-c1cccc(COc2nc(OCc3cnn(C)c3)c(CNC[C@@H](O)CC(=O)O)cc2Cl)c1C` [Example 136, (3S,3′S)-4,4′-((((((2,2′-dimethyl-[1,1′-biphenyl]-3,3′-diyl)bis(methylene))bis(oxy))bis(5-chloro-2-((1-methyl-1H-pyrazol-4-yl)methoxy)pyridine-6,3-diyl))bis(methylene))bis(azanediyl))bis(3-hydroxybutanoic acid)] was 0.529 µM; that for `Cc1c(COc2nc(OCc3ccc(F)c(C#N)c3)c(CNC[C@@H](O)CC(=O)O)cc2Br)cccc1-c1cccc(COc2nc(OCc3ccc(F)c(C#N)c3)c(CNC[C@@H](O)CC(=O)O)cc2Br)c1C` [Example 140, (3S,3′S)-4,4′-((((((2,2′-dimethyl-[1,1′-biphenyl]-3,3′-diyl)bis(methylene))bis(oxy))bis(5-bromo-2-((3-cyano-4-fluorobenzyl)oxy)pyridine-6,3-diyl))bis(methylene))bis(azanediyl))bis(3-hydroxybutanoic acid)] was 0.239 µM; that for `Cc1c(COc2nc(OCCc3cc[nH]n3)c(CNC[C@@H](O)CC(=O)O)cc2Br)cccc1-c1cccc(COc2nc(OCCc3cc[nH]n3)c(CNC[C@@H](O)CC(=O)O)cc2Br)c1C` [Example 142, (3S,3′S)-4,4′-((((((2,2′-dimethyl-[1,1′-biphenyl]-3,3′-diyl)bis(methylene))bis(oxy))bis(2-(2-(1H-pyrazol-3-yl)ethoxy)-5-bromopyridine-6,3-diyl))bis(methylene))bis(azanediyl))bis(3-hydroxybutanoic acid)] was 0.235 µM.
For the molecule `Cc1c(COc2nc(OCc3cccc(C#N)n3)c(CNC[C@@H](O)CC(=O)O)cc2Br)cccc1-c1cccc(COc2nc(OCc3cccc(C#N)n3)c(CNC[C@@H](O)CC(=O)O)cc2Br)c1C` [Example 152, (3S,3′S)-4,4′-((((((2,2′-dimethyl-[1,1′-biphenyl]-3,3′-diyl)bis(methylene))bis(oxy))bis(5-bromo-2-((6-cyanopyridin-2-yl)methoxy)pyridine-6,3-diyl))bis(methylene))bis(azanediyl))bis(3-hydroxybutanoic acid)], the EC50 was 0.594 µM.
On to `Cc1c(COc2nc(OCc3cccc(C#N)c3)c(CNC[C@@H](O)CC(=O)O)cc2Cl)cccc1-c1cccc(COc2nc(OCc3cccc(C#N)c3)c(CNC[C@@H](O)CC(=O)O)cc2Cl)c1C` [Example 153, (3S,3′S)-4,4′-((((((2,2′-dimethyl-[1,1′-biphenyl]-3,3′-diyl)bis(methylene))bis(oxy))bis(5-chloro-2-((3-cyanobenzyl)oxy)pyridine-6,3-diyl))bis(methylene))bis(azanediyl))bis(3-hydroxybutanoic acid)], for which the half-maximal effective concentration (EC50) was found to be 0.329 µM.
Take `COc1nc(OCc2cccc(-c3cccc(COc4nc(OC)c(CNCC(=O)NS(C)(=O)=O)cc4Cl)c3C)c2C)c(Cl)cc1CNCC(=O)NS(C)(=O)=O` [Example 168, 2,2′-((((((2,2′-Dimethyl-[1,1′-biphenyl]-3,3′-diyl)bis(methylene))bis(oxy))bis(5-chloro-2-methoxypyridine-6,3-diyl))bis(methylene))bis(azanediyl))bis(N-(methylsulfonyl)acetamide)]: the 50% effective concentration (EC50) turned out to be 0.308 µM.
With `COc1nc(OCc2cccc(-c3cccc(COc4nc(OC)c(CNCc5nnn[nH]5)cc4Cl)c3C)c2C)c(Cl)cc1CNCc1nnn[nH]1` [Example 169, 1,1′-((((2,2′-dimethyl-[1,1′-biphenyl]-3,3′-diyl)bis(methylene))bis(oxy))bis(5-chloro-2-methoxypyridine-6,3-diyl))bis(N-((1H-tetrazol-5-yl)methyl)methanamine)], the 50% effective concentration (EC50) amounted to 0.225 µM.
With `COc1nc(OCc2cccc(-c3cccc(COc4nc(OC)c(CNCc5nnc(C)o5)cc4Cl)c3C)c2C)c(Cl)cc1CNCc1nnc(C)o1` [Example 170, 1,1′-((((2,2′-dimethyl-[1,1′-biphenyl]-3,3′-diyl)bis(methylene))bis(oxy))bis(5-chloro-2-methoxypyridine-6,3-diyl))bis(N-((5-methyl-1,3,4-oxadiazol-2-yl)methyl)methanamine)], the EC50 was at least 50 µM.
With `COc1nc(OCc2cccc(-c3cccc(COc4nc(OC)c(CNCc5c[nH]nn5)cc4Cl)c3C)c2C)c(Cl)cc1CNCc1c[nH]nn1` [Example 171, 1,1′-((((2,2′-dimethyl-[1,1′-biphenyl]-3,3′-diyl)bis(methylene))bis(oxy))bis(5-chloro-2-methoxypyridine-6,3-diyl))bis(N-((1H-1,2,3-triazol-4-yl)methyl)methanamine)], the EC50 is 7.72 µM.
`COc1nc(OCc2cccc(-c3cccc(COc4nc(OC)c(CN[C@@H]5CONC5=O)cc4Cl)c3C)c2C)c(Cl)cc1CN[C@@H]1CONC1=O` [Example 173, (4R,4′R)-4,4′-((((((2,2′-dimethyl-[1,1′-biphenyl]-3,3′-diyl)bis(methylene))bis(oxy))bis(5-chloro-2-methoxypyridine-6,3-diyl))bis(methylene))bis(azanediyl))bis(isoxazolidin-3-one)]: the EC50 is at least 50 µM.
With `COc1nc(OCc2cccc(-c3cccc(COc4nc(OC)c(CNCC(=O)NS(=O)(=O)N(C)C)cc4Cl)c3C)c2C)c(Cl)cc1CNCC(=O)NS(=O)(=O)N(C)C` [Example 174, 2,2′-((((((2,2′-dimethyl-[1,1′-biphenyl]-3,3′-diyl)bis(methylene))bis(oxy))bis(5-chloro-2-methoxypyridine-6,3-diyl))bis(methylene))bis(azanediyl))bis(N-(N,N-dimethylsulfamoyl)acetamide)], the EC50 is at least 50 µM.
As for `COc1nc(OCc2cccc(-c3cccc(COc4nc(OC)c(CNCC5(O)CC5)cc4Cl)c3C)c2C)c(Cl)cc1CNCC1(O)CC1` [Example 175, 1,1′-(((((((2,2′-dimethyl-[1,1′-biphenyl]-3,3′-diyl)bis(methylene))bis(oxy))bis(5-chloro-2-methoxypyridine-6,3-diyl))bis(methylene))bis(azanediyl))bis(methylene))bis(cyclopropan-1-ol)], the 50% effective concentration (EC50) turned out to be 0.808 µM.
